{"source": "patent US20100115635A1", "about": "“Methods for Assessing the Delivery of Exogenous Agents” (Abbott Laboratories, priority 2007, published 2010)", "test_system": "MDA-tetR-ODC/Luc liver tumors", "assay": "bioluminescence imaging of MDA-tetR-ODC/Luc liver tumors", "type": "in vivo, mice", "conditions": "4 days after doxycycline treatment", "excerpt": "A MDA-tetR-ODC/Luc cell line was created from MDA-MB435-SLM-derived cell line with a stably integrated tetR-ODC expression cassette and a tet-responsive firefly luciferase reporter. FIG. 6A). The MDA-tetR-ODC/Luc cells were inoculated into skid mice to establish liver tumors. The mice were imaged before doxycycline treatment (top panel of FIG. 6A) or 4 days after doxycycline treatment (bottom panel of FIG. 6A). […] FIG. 6B) Monitoring target knockdown in the MDA-tetR-ODC/Luc cell-derived liver tumors using imaging. The MDA-tetR-ODC/Luc cells were inoculated into skid mice to establish liver tumors. […] Mice were imaged before dosing and 2 days after the last dose. […] The mice were imaged before doxycycline treatment (top panel of FIG. 6B) or 4 days after doxycycline treatment (bottom panel of FIG. 6B).", "data": [{"smiles": "C[C@H]1c2cccc(O)c2C(=O)C2=C(O)[C@]3(O)C(=O)C(C(N)=O)=C(O)[C@@H](N(C)C)[C@@H]3[C@@H](O)[C@@H]21", "note": "[doxycycline]", "values": [{"measurement": "increase of luminescent signal compared to untreated mice", "value": "more than 100 fold"}]}]}
